Assay [1] deals with full-thickness skin wounds. Nature of the assay: Collagen content and organisation (picrosirius red, bright-field and polarised light image analysis) in mouse excisional wound model. The assay is classed as in vivo, Mice. Particulars: wounds treated versus vehicle; Fig. 5. Here is the method: Four full-thickness skin wounds were performed by cutting the folded skin on the back of the mice with a 7.5 mm x 3 mm elliptical biopsy punch (Elliptical Excisional Instrument, Acuderm Inc.). The skin on the back was raised and folded at the level of the vertebral column by using the thumb and the index finger. The folded skin was then placed on a wood tongue depressor with the animal laying on one side and two wounds were performed through the folded skin by using an elliptical biopsy punch (Elliptical Excisional Instrument, Acuderm Inc.), resulting in four wounds on the back skin: two on the right of the vertebral column and two on the left (Figure 1). […]
Collagen content and organisation were assessed as published by De Visscher et al. (2007, 2008). […] From this the collagen content and organisation can be measured according to the following method.
The total area (At) of the region of interest (ROI) and the area of the red stained material within that area (Ar) on the bright-field image. On the polarized light image, the area of the red illuminated bundles (Ab) is measured. The collagen density and organized collagen are calculated by the following formulae: Collagen density: (Ar/At) × 100 [formula] […]
Both are expressed as a percentage: collagen density as a percentage of the total area and organized collagen as a percentage of the collagen area.

In assay [2] the test system is full-thickness skin wounds. Nature of the assay: Scar index analysis (H&E histology) in mouse excisional wound model. The assay is classed as in vivo, Mice. To be noted: for scar index: topical, 5 daily treatments, harvest after 14 days. Here is the method:
The mouse model used here can be considered one of the simplest and standard murine models for investigating scar formation and wound healing.
Mice were weighed and then anaesthetized with 5% isoflurane in air for induction and then administered 2.5-3% of isoflurane in air for the remainder of the procedure. The animals were administered Tramal (Tramadol) intraperitoneally for analgesia at a 0.1 mg/kg dose. Before surgery the back of the mice was shaved and disinfected with isobetadine soap, rinsed with water and then swabbed with iodium alcohol.
Four full-thickness skin wounds were performed by cutting the folded skin on the back of the mice with a 7.5 mm x 3 mm elliptical biopsy punch (Elliptical Excisional Instrument, Acuderm Inc.). The skin on the back was raised and folded at the level of the vertebral column by using the thumb and the index finger. The folded skin was then placed on a wood tongue depressor with the animal laying on one side and two wounds were performed through the folded skin by using an elliptical biopsy punch (Elliptical Excisional Instrument, Acuderm Inc.), resulting in four wounds on the back skin: two on the right of the vertebral column and two on the left (Figure 1). The epidermis, the dermis and the fat tissue in the wound was carefully removed without touching other tissues. The wounds were then immediately treated with topical application of Composition 1 (Tv - vehicle), Composition 2 (T1 - 1 µM Lipoxin A4), or Composition 3 (T2 - 100 µM Lipoxin A4). The position of the wounds that were treated with active agent (T1 or T2) or treated with vehicle (Tv) was randomised. The wound site was then covered with OP-Film (Somed International, the Netherlands). The borders were then fixed with cyanoacrylate glue (Loctite).
The mice were allowed to recover from the surgical preparation in a clean cage with fresh bedding and under a heating lamp. To avoid possible contamination the mice were placed in individual cages containing a cellulose bed that was changed every 24 hours. Single caging avoids other mice from detaching the adhesive patches.
The treatment was repeated at the day 1, 2, 3 and 4 post-surgery for a total of 5 treatments in the first 5 days of healing. At each time point the mice were briefly anaesthetized with isoflurane and a new dose of ointment was injected through the film onto the wound, after which the animal was left to recover. At day 5 all films were removed.
After 14 days the mice were sacrificed under isoflurane anaesthesia by cervical dislocation to harvest the regenerated tissue. Skin samples were taken. The back of the mouse was carefully shaved paying careful attention to not touch the wound area. […]
The extent of scarring was measured in accordance with the procedure set out by Khorasani et al. (2011). […]

From patent publication EP3020398A1, “Compounds and formulations for reducing scarring” (NITTO DENKO CORPORATION, priority 2014, dated 2016) come the findings set out here.

Regarding `CCCCC[C@H](O)/C=C/C=C\C=C\C=C\[C@@H](O)[C@@H](O)CCCC(=O)O` [Lipoxin A4], the “Collagen content (in words, versus vehicle)” value in assay [1] is “Lower collagen content was observed in wounds treated with vehicle”. The “Collagen organisation (in words, versus vehicle)” value in assay [1] is listed as “increased values”. The scar index in assay [2] (1 µM Lipoxin A4 treatment, Figure 4) is on record as 905 µm; in assay [2] (100 µM Lipoxin A4 treatment, Figure 4), 511 µm; in assay [2] (Pooled Lipoxin A4 treatment, Figure 3, p=0.008 vs vehicle (Vehicle 1478 ± 334)), 748 µm. Further, in assay [2] (Figure 3, n=5, p<0.008), the “lower scarring than wounds treated with Control (quantitative scar index analysis)” value is given as 49%.
